Reference: ChEMBL document CHEMBL5550096, “Casitas b cell lymphoma‑B (Cbl-b): A new therapeutic avenue for small-molecule immunotherapy” (Bioorg Med Chem, 2024)
Where a SMILES comes first, the peptide text is derived from it. [ ]: non-standard residue; d: D form. The star is where a group is joined. pY = N[C@@H](Cc1ccc(OP(=O)(O)O)cc1)C(=O)O; Myristoyl = CCCCCCCCCCCCCC(=O)*

Experiments:
[1] = biological target: T1, E3 ubiquitin-protein ligase CBL-B (Homo sapiens, UniProt Q13191); assay: Inhibition of Cbl-b (unknown origin) ubiquitination by TR-FRET assay
[2] = biological target: T1, E3 ubiquitin-protein ligase CBL-B; assay: Inhibition of Cbl-b (unknown origin) by TR-FRET assay
[3] = biological target: T1, E3 ubiquitin-protein ligase CBL-B
Description: Binding affinity to CBl-b (unknown origin) assessed as dissociation constant by Surface plasmon resonance

[4] = Intrinsic clearance in mouse liver microsomes by HPLC-MS/MS analysis
[5] = Half life in rat plasma; type: ADME, cell-free
[6] = biological target: T1, E3 ubiquitin-protein ligase CBL-B; assay: Inhibition of recombinant Cbl-b (unknown origin) ubiquitination incubated for 1 hr by TR-FRET assay
[7] = biological target: T1, E3 ubiquitin-protein ligase CBL-B; assay: Inhibition of Cbl-b (unknown origin)
[8] = biological target: T1, E3 ubiquitin-protein ligase CBL-B; assay: Inhibition of biotinylated recombinant Cbl-b (36 to 427 residues)(unknown origin) expressed in Escherichia coli BL21(DE3) measured for 1 hr by TR-FRET assay
[9] = biological target: T1, E3 ubiquitin-protein ligase CBL-B; assay: Inhibition of Cbl-b (unknown origin) by SPR assay
[10] = biological target: T1, E3 ubiquitin-protein ligase CBL-B; assay: Inhibition of Cbl-b (unknown origin) by HTRF assay
[11] = biological target: T1, E3 ubiquitin-protein ligase CBL-B; assay: Inhibition of N-terminal His-tagged human Cbl-b (40 to 426 residues) expressed in Escherichia coli by measured for 90 mins by HTRF method

T1 sequence (Q13191 whole entry): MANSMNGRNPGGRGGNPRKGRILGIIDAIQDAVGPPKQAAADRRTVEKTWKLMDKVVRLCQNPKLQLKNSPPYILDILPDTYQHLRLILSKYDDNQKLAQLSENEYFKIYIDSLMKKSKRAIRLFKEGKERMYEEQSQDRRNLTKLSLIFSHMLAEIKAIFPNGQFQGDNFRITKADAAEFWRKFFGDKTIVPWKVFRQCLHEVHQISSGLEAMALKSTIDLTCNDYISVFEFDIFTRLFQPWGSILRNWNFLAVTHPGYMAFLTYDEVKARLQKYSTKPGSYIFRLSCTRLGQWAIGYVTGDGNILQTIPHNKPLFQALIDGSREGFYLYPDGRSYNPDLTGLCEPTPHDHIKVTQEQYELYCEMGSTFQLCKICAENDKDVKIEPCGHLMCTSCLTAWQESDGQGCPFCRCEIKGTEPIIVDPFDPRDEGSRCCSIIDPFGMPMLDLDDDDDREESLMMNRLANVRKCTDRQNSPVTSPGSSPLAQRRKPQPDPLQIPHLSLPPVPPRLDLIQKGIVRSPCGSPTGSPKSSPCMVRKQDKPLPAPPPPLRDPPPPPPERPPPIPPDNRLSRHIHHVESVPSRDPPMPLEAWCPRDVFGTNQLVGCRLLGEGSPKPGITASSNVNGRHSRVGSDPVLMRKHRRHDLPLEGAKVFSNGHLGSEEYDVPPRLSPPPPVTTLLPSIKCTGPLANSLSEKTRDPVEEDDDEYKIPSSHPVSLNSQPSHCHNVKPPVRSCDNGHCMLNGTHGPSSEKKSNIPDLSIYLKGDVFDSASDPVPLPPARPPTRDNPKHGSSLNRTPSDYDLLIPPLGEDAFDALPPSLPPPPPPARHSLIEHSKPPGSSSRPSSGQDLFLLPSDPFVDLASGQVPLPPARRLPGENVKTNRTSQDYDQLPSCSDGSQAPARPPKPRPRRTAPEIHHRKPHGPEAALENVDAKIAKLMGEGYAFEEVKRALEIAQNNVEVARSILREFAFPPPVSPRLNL

Cc1cc(C(=O)Nc2cccc(C3(Cc4nncn4C)COC3)c2)nc(C2CC2)n1
IC50 [1]: 0.021 µM | IC50 [2]: 0.02 µM | Kd [3]: 0.02 µM

C[C@H](Sc1nncn1C)c1cccc(NC(=O)c2ccnc(C3CC3)n2)c1
CLint scaled [4]: 500 mL/min/kg | half-life [5]: 2.33 h

C[C@H]1CCCN(Cc2cc3c(c(C(F)(F)F)c2)CN(c2cccc([C@]4(c5nncn5C)C[C@@H](C)C4)c2)C3=O)C1
IC50 [6]: < 0.005 µM | IC50 [1]: < 0.005 µM | Kd [3]: 0.008 µM

Cn1cnnc1C(F)(F)[C@](C)(F)c1cccc(NC(=O)N2CC3(CNC3)Oc3cccnc32)c1
IC50 [7]: < 0.1 µM | IC50 [8]: < 0.1 µM

COCC1(NCc2cc3c(c(C(F)(F)F)c2)CN(c2cccc([C@]4(c5nncn5C)C[C@H](OC)C4)c2)C3=O)CC1
IC50 [9]: 0.004 µM | Kd [3]: 0.004 µM

C[C@H](Cc1nncn1C)c1cccc(-c2n[nH]c3c(CN4CC[C@H](F)C4)cc(C(F)(F)F)nc23)c1
IC50 [7]: < 0.1 µM | IC50 [8]: < 0.1 µM

Cn1cnnc1-c1cc(C#N)ccc1-c1cc(C2CC2)nc(N2Cc3c(cc(CNCC4(F)CCC4)cc3C(F)(F)F)C2=O)c1
IC50 [9]: 0.2 µM | IC50 [10]: < 0.2 µM

Cc1cc(CNC2(C)CCC2)cc2c(=O)c(-c3cccc([C@]4(c5nncn5C)C[C@@H](C)C4)c3)coc12
IC50 [7]: 0.01 µM | IC50 [11]: 0.013 µM

Cn1cnnc1[C@]1(c2cccc(NC(=O)c3cc(CN4CCC[C@H](C(F)F)C4)cn4ccnc34)c2)C[C@H](CC#N)C1
IC50 [7]: 0.005 µM | IC50 [11]: 0.001 µM

CC(c1cc(C(=O)Nc2cccc([C@]3(c4nncn4C)C[C@@H](CC#N)C3)c2)nc2cc[nH]c12)N1CCC[C@H](C)C1 (stereo partly specified)
IC50 [7]: 11 µM | IC50 [11]: 0.004 µM

C[C@H]1CCCN(Cc2cc(C(F)(F)F)c3[nH]c(-c4cccc([C@]5(c6nncn6C)C[C@@H](C)C5)c4)nc3c2)C1
IC50 [7]: < 0.2 µM | IC50 [8]: < 0.2 µM

Cn1cnnc1[C@]1(c2cccc(-n3cc4c(C(F)(F)F)cc(CN5CCC6(CC6)C5)cn4c3=O)c2)C[C@H](C)C1
IC50 [6]: < 0.1 µM | IC50 [7]: < 0.1 µM | IC50 [8]: < 0.1 µM

Cn1cnnc1[C@]1(c2cccc(-c3cnc4c(C(F)(F)F)cc(CN5CC6CC(C)(C6)C5)cn4c3=O)c2)C[C@H](C)C1
IC50 [7]: 0.02 µM | IC50 [11]: 0.025 µM

Cn1cnnc1[C@]1(c2cccc(N3C(=O)c4cc(CNC5(C)CCC5)cc5cccc3c45)c2)C[C@H](C)C1
IC50 [9]: 0.02 µM | IC50 [10]: 0.02 µM

CO[C@@]1(C(=O)N/C=C/c2ccc(O)cc2)O[C@](O)(C(=O)N/C=C/c2ccc(O)cc2)[C@@H](c2ccc(O)c(O)c2)[C@@H]1c1ccc(O)c(O)c1
IC50 [7]: 11 µM

O=C(N/C=C/c1ccc(O)cc1)c1c(-c2ccc(O)c(O)c2)c(-c2ccc(O)c(O)c2)c(C(=O)N/C=C/c2ccc(O)cc2)n1CCc1ccc(O)cc1
IC50 [7]: 6.5 µM

CC(C)[C@H]1CN(C)CCN1Cc1cc(C(=O)Nc2cccc(C3([C@@H](F)c4nncn4C)CC(F)(F)C3)c2)nc(C2CC2)c1
IC50 [1]: 0.007 µM | IC50 [10]: 0.007 µM

CCCCCCCCCCCCCC(=O)N[C@@H](CC(=O)O)C(=O)NCC(=O)N[C@@H](Cc1ccc(OP(=O)(O)O)cc1)C(=O)N[C@@H](CCSC)C(=O)N1CCC[C@H]1C(=O)O (Myristoyl-DG[pY]MP-OH)
IC50 [6]: 30 µM
